This experiment has as its system 233499-124-R-J3-PDC complex spheroid growth. Briefly: Anticancer human tumor 233499-124-R-J3-PDC patient-derived colon adenocarcinoma cell line growth inhibition [AhR]. The following applies: for viability, T/C: stronger effect = lower value. In a few lines: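 Spheroids combined tumor cells with HUVEC endothelial cells and human MSCs as stroma. AhR antagonists were paired with standard or investigational drugs, each dosed in half-log steps down from near clinical Cmax, or from 10 microM where Cmax was unknown.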

[1] abbreviates: curve of first compound, second compound 0.1 µM.
Setting [2] is: curve of first compound, second compound 0.316 µM.
The mark [3] stands for this setting: curve of first compound, second compound 1 µM.
Where [4] appears, read: curve of first compound, second compound 3.16 µM.
[5] abbreviates: curve of first compound, second compound 10 µM.
[6] abbreviates: second compound 0.1 µM, first compound 0.0316 µM.
Setting [7] is: second compound 0.1 µM, first compound 0.1 µM.
Where [8] appears, read: second compound 0.1 µM, first compound 0.316 µM.
Where [9] appears, read: second compound 0.1 µM, first compound 1 µM.
Where [10] appears, read: second compound 0.316 µM, first compound 0.0316 µM.
[11] abbreviates: second compound 0.316 µM, first compound 0.1 µM.
[12] abbreviates: second compound 0.316 µM, first compound 0.316 µM.
The mark [13] stands for this setting: second compound 0.316 µM, first compound 1 µM.
[14] abbreviates: second compound 1 µM, first compound 0.0316 µM.
[15] abbreviates: second compound 1 µM, first compound 0.1 µM.
[16] abbreviates: second compound 1 µM, first compound 0.316 µM.
Setting [17] is: second compound 1 µM, first compound 1 µM.
Setting [18] is: second compound 3.16 µM, first compound 0.0316 µM.
[19] abbreviates: second compound 3.16 µM, first compound 0.1 µM.
[20] abbreviates: second compound 3.16 µM, first compound 0.316 µM.
Setting [21] is: second compound 3.16 µM, first compound 1 µM.
The mark [22] stands for this setting: second compound 10 µM, first compound 0.0316 µM.
Where [23] appears, read: second compound 10 µM, first compound 0.1 µM.
Where [24] appears, read: second compound 10 µM, first compound 0.316 µM.
[25] abbreviates: second compound 10 µM, first compound 1 µM.

SMILES strings stand for the structures. Where “and” joins values, the source holds several entries; their conditions need not be identical. Identical values can stand only once.
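Further: spheroids exposed to agents for seven days before reading.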

As for `COc1ccc([C@@H](O)c2cc(-c3ncnc4cc(N5CCOCC5)ccc34)c(F)cc2Cl)nn1` + Cc1cncc(-c2nc(NCCc3c[nH]c4ccccc34)c3ncn(C(C)C)c3n2)c1, the IC50 by setting is: under setting [1], greater than 10 µM; under setting [2], greater than 10 µM; under setting [3], greater than 10 µM; under setting [4], greater than 10 µM; under setting [5], less than 0.0316 µM. The viability, T/C under setting [6] is 87.6%; the viability, T/C under setting [7] was 82.5%; the viability, T/C under setting [8] was 84.5%; the viability, T/C under setting [9] was 90.5%; the viability, T/C (second compound 0.1 µM, first compound 3.16 µM) is 70.3%; the viability, T/C (second compound 0.1 µM, first compound 10 µM) is 64.1%. Further, the viability, T/C is 95.3% under setting [10]; 77.3% under setting [11]; 79.8% under setting [12]; 64.5% under setting [13]; 70.4% (second compound 0.316 µM, first compound 3.16 µM); 67.7% (second compound 0.316 µM, first compound 10 µM). The viability, T/C is, setting by setting: under setting [14], 75.7%; under setting [15], 73.3%; under setting [16], 65.7%; under setting [17], 66.4%; (second compound 1 µM, first compound 3.16 µM) 60.8%; (second compound 1 µM, first compound 10 µM) 67.5%. For the same compound, the viability, T/C runs as follows: under setting [18], 74.2%; under setting [19], 72.7%; under setting [20], 68.1%; under setting [21], 69%; (second compound 3.16 µM, first compound 3.16 µM) 61.4%; (second compound 3.16 µM, first compound 10 µM) 71.7%. The viability, T/C under setting [22] is 1.87%; the viability, T/C under setting [23] is 1.89%; the viability, T/C under setting [24] was 4.9%; the viability, T/C under setting [25] was 2.28%; the viability, T/C (second compound 10 µM, first compound 3.16 µM) is 1.45%; the viability, T/C (second compound 10 µM, first compound 10 µM) is 4.49%.
`CCN(c1cc(-c2ccc(CN3CCOCC3)cc2)cc(C(=O)NCc2c(C)cc(C)[nH]c2=O)c1C)C1CCOCC1`: the viability, T/C by setting is: (compound 0.00949 µM) 92.4% and 97.3% and 86.5%; (compound 0.03 µM) 107% and 97% and 98%; (compound 0.0949 µM) 96.5% and 90.3% and 94.9%; (compound 0.3 µM) 103% and 96.3% and 91.4%; (compound 0.949 µM) 102% and 109% and 100%; (compound 3 µM) 106% and 97.9% and 96.6%. The IC50 (curve of compound) was greater than 3 µM.
Consider `CC1(C)CCC(CN2CCN(c3ccc(C(=O)NS(=O)(=O)c4ccc(NCC5CCOCC5)c([N+](=O)[O-])c4)c(Oc4cnc5[nH]ccc5c4)c3)CC2)=C(c2ccc(Cl)cc2)C1`, for which the viability, T/C was 87.2% and 90.9% and 106% (compound 0.0316 µM); 102% and 112% and 109% (compound 0.1 µM); 92.4% and 105% and 97.8% (compound 0.316 µM); 105% and 101% and 104% (compound 1 µM); 112% and 114% and 98.7% (compound 3.16 µM); 109% and 42.8% and 31.2% (compound 10 µM). Besides, the IC50 (curve of compound) is > 10 µM and 8.74 µM and 7.26 µM.
Consider `O=C(C=Cn1cnc(-c2cc(C(F)(F)F)cc(C(F)(F)F)c2)n1)NNc1cnccn1`, for which the viability, T/C is, setting by setting: (compound 0.00949 µM) 101% and 111% and 105%; (compound 0.03 µM) 104% and 93.9% and 109%; (compound 0.0949 µM) 105% and 106% and 103%; (compound 0.3 µM) 108% and 96.7% and 90.6%; (compound 0.949 µM) 81.6% and 74.5% and 86%; (compound 3 µM) 60.7% and 70.6% and 74.3%. In addition, the IC50 (curve of compound) is greater than 3 µM.
For `O=C(C=Cn1cnc(-c2cc(C(F)(F)F)cc(C(F)(F)F)c2)n1)NNc1cnccn1` + Cc1ccccc1N=Nc1ccc(NC(=O)c2ccnn2C)c(C)c1, the IC50 is, setting by setting: under setting [1], greater than 3 µM; under setting [2], greater than 3 µM; under setting [3], greater than 3 µM; under setting [4], greater than 3 µM; under setting [5], greater than 3 µM. Further, the viability, T/C was 109% (second compound 0.1 µM, first compound 0.00949 µM); 91.2% (second compound 0.1 µM, first compound 0.03 µM); 110% (second compound 0.1 µM, first compound 0.0949 µM); 86.7% (second compound 0.1 µM, first compound 0.3 µM); 96% (second compound 0.1 µM, first compound 0.949 µM); 61% (second compound 0.1 µM, first compound 3 µM). Further, the viability, T/C runs as follows: (second compound 0.316 µM, first compound 0.00949 µM) 104%; (second compound 0.316 µM, first compound 0.03 µM) 113%; (second compound 0.316 µM, first compound 0.0949 µM) 111%; (second compound 0.316 µM, first compound 0.3 µM) 96.4%; (second compound 0.316 µM, first compound 0.949 µM) 87.3%; (second compound 0.316 µM, first compound 3 µM) 76.8%. Besides, the viability, T/C is, setting by setting: (second compound 1 µM, first compound 0.00949 µM) 97.8%; (second compound 1 µM, first compound 0.03 µM) 98.3%; (second compound 1 µM, first compound 0.0949 µM) 116%; (second compound 1 µM, first compound 0.3 µM) 100%; (second compound 1 µM, first compound 0.949 µM) 78%; (second compound 1 µM, first compound 3 µM) 77.8%. Further, the viability, T/C (second compound 3.16 µM, first compound 0.00949 µM) was 98%; the viability, T/C (second compound 3.16 µM, first compound 0.03 µM) is 99.1%; the viability, T/C (second compound 3.16 µM, first compound 0.0949 µM) was 92.8%; the viability, T/C (second compound 3.16 µM, first compound 0.3 µM) is 86.8%; the viability, T/C (second compound 3.16 µM, first compound 0.949 µM) is 93.2%; the viability, T/C (second compound 3.16 µM, first compound 3 µM) was 70.8%. Besides, the viability, T/C runs as follows: (second compound 10 µM, first compound 0.00949 µM) 101%; (second compound 10 µM, first compound 0.03 µM) 85%; (second compound 10 µM, first compound 0.0949 µM) 85.3%; (second compound 10 µM, first compound 0.3 µM) 108%; (second compound 10 µM, first compound 0.949 µM) 85.6%; (second compound 10 µM, first compound 3 µM) 50.2%.
For `CC1COCCN1c1cc(-c2ccnn2C)c2ccnc(-c3ccn[nH]3)c2n1` (stereo unspecified) + CC(CO)NC(=O)c1cc(-c2ccc(Cl)cc2)nn(-c2cnn(C)c2)c1=O, the IC50 reads like this: under setting [1], 0.516 µM; under setting [2], 0.609 µM; under setting [3], 0.547 µM; under setting [4], 0.65 µM; under setting [5], 0.23 µM. Also, the viability, T/C by setting is: (second compound 0.1 µM, first compound 0.00316 µM) 97.6%; (second compound 0.1 µM, first compound 0.01 µM) 95.3%; under setting [6], 89.1%; under setting [7], 83.9%; under setting [8], 63%; under setting [9], 31.7%. Also, the viability, T/C was 90.3% (second compound 0.316 µM, first compound 0.00316 µM); 102% (second compound 0.316 µM, first compound 0.01 µM); 90.3% under setting [10]; 84.9% under setting [11]; 68.1% under setting [12]; 36.5% under setting [13]. Further, the viability, T/C is, setting by setting: (second compound 1 µM, first compound 0.00316 µM) 106%; (second compound 1 µM, first compound 0.01 µM) 101%; under setting [14], 97.9%; under setting [15], 82.5%; under setting [16], 60.8%; under setting [17], 38.2%. For the same compound, the viability, T/C runs as follows: (second compound 3.16 µM, first compound 0.00316 µM) 81.9%; (second compound 3.16 µM, first compound 0.01 µM) 86.9%; under setting [18], 87.2%; under setting [19], 85.6%; under setting [20], 60.8%; under setting [21], 43.6%. In addition, the viability, T/C reads like this: (second compound 10 µM, first compound 0.00316 µM) 83.3%; (second compound 10 µM, first compound 0.01 µM) 90%; under setting [22], 80.8%; under setting [23], 59%; under setting [24], 49%; under setting [25], 33.4%.

A word on the IC50: it is the concentration needed to halve the response being measured. In general, viability, T/C refers to the ratio of treated to control.
